Experimental data from the supplement of paper PMC10307832.

Assays:
Experiment in all cases: relative viability (nuclei count vs DMSO), 5 days (fraction); higher = more cells survive
Neratinib + Navitoclax = compound: CCOc1cc2ncc(C#N)c(Nc3ccc(OCc4ccccn4)c(Cl)c3)c2cc1NC(=O)/C=C/CN(C)C [Neratinib] + CC1(C)CCC(c2ccc(Cl)cc2)=C(CN2CCN(c3ccc(C(=O)NS(=O)(=O)c4ccc(N[C@H](CCN5CCOCC5)CSc5ccccc5)c(S(=O)(=O)C(F)(F)F)c4)cc3)CC2)C1 [Navitoclax] (partner 0.5 µM)
Procedure, shortened: (§1)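 Lung cancer cell lines in 1536-well plates were dosed by pin tool the day after seeding, either with one drug alone or with a fixed anchor-drug dose plus five library-drug doses (not always all listed) in √10 steps. After 5 days, cells were fixed and their nuclei stained in one step (final 0.05% Triton X-100, 1% formaldehyde, 1 ug/ml Hoechst), then counted on 4× images. Relative viability is the nuclei count in treated wells divided by that in vehicle wells. Values are medians of duplicate plates.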

Neratinib + Crizotinib = compound: CCOc1cc2ncc(C#N)c(Nc3ccc(OCc4ccccn4)c(Cl)c3)c2cc1NC(=O)/C=C/CN(C)C [Neratinib] + C[C@@H](Oc1cc(-c2cnn(C3CCNCC3)c2)cnc1N)c1c(Cl)ccc(F)c1Cl [Crizotinib] (partner 1 µM)
Procedure, shortened: as §1

Neratinib + Dasatinib = compound: CCOc1cc2ncc(C#N)c(Nc3ccc(OCc4ccccn4)c(Cl)c3)c2cc1NC(=O)/C=C/CN(C)C [Neratinib] + Cc1nc(Nc2ncc(C(=O)Nc3c(C)cccc3Cl)s2)cc(N2CCN(CCO)CC2)n1 [Dasatinib] (partner 0.075 µM)
Procedure, shortened: as §1

Neratinib + Vorinostat = compound: CCOc1cc2ncc(C#N)c(Nc3ccc(OCc4ccccn4)c(Cl)c3)c2cc1NC(=O)/C=C/CN(C)C [Neratinib] + O=C(CCCCCCC(=O)Nc1ccccc1)NO [Vorinostat] (partner 1 µM)
Procedure, shortened: as §1

| Cell Line | relative viability (Neratinib + Navitoclax; first compound 0.01 µM) | relative viability (Neratinib + Navitoclax; first compound 0.03162 µM) | relative viability (Neratinib + Navitoclax; first compound 0.1 µM) | relative viability (Neratinib + Navitoclax; first compound 0.3162 µM) | relative viability (Neratinib + Navitoclax; first compound 1 µM) | relative viability (Neratinib + Crizotinib; first compound 0.01 µM) | relative viability (Neratinib + Crizotinib; first compound 0.03162 µM) | relative viability (Neratinib + Crizotinib; first compound 0.1 µM) | relative viability (Neratinib + Crizotinib; first compound 0.3162 µM) | relative viability (Neratinib + Crizotinib; first compound 1 µM) | relative viability (Neratinib + Dasatinib; first compound 0.01 µM) | relative viability (Neratinib + Dasatinib; first compound 0.03162 µM) | relative viability (Neratinib + Dasatinib; first compound 0.1 µM) | relative viability (Neratinib + Dasatinib; first compound 0.3162 µM) | relative viability (Neratinib + Vorinostat; first compound 0.01 µM) | relative viability (Neratinib + Vorinostat; first compound 0.03162 µM) | relative viability (Neratinib + Vorinostat; first compound 0.1 µM) | relative viability (Neratinib + Vorinostat; first compound 0.3162 µM) | relative viability (Neratinib + Vorinostat; first compound 1 µM) | relative viability (Neratinib + Dasatinib; first compound 1 µM) |
| --- | --- | --- | --- | --- | --- | --- | --- | --- | --- | --- | --- | --- | --- | --- | --- | --- | --- | --- | --- | --- |
| H3255 | 0.583 | 0.74 | 0.243 | 0.0785 | 0.0934 | 0.836 | 0.838 | 0.671 | 0.243 | 0.164 | 0.38 | 0.392 | 0.283 | 0.195 | 0.826 | 0.826 | 0.65 | 0.509 | 0.191 | – |
| EPLC-272H | 1.09 | 0.991 | 0.851 | 0.822 | 0.834 | 0.997 | 0.964 | 0.799 | 0.613 | 0.553 | – | 0.457 | 0.284 | 0.208 | 0.287 | 0.498 | 0.415 | 0.332 | 0.269 | 0.152 |
| SW 1573 | 1.32 | 1.15 | 0.862 | 0.87 | 0.804 | 0.91 | 0.929 | 0.892 | 0.628 | 0.546 | 0.455 | 0.519 | 0.455 | 0.495 | 0.797 | 0.831 | 0.612 | 0.623 | 0.38 | 0.322 |
| NCI-H1793 | 0.757 | 0.497 | 0.371 | 0.352 | 0.217 | – | – | – | – | – | 0.43 | 0.457 | 0.321 | 0.34 | 0.765 | 0.849 | 0.473 | 0.487 | 0.355 | 0.264 |
| EKVX | 0.999 | 1.04 | 0.831 | 0.305 | 0.205 | 1.32 | 1.08 | 0.823 | 0.452 | 0.211 | 0.632 | 0.676 | 0.443 | 0.243 | 0.889 | 0.801 | 0.498 | 0.276 | 0.308 | 0.253 |
| ChaGo-K-1 | 0.986 | 1 | 1.02 | 0.821 | 0.905 | 1.3 | 1.24 | 1.14 | 1.02 | 0.845 | 0.561 | 0.62 | 0.555 | 0.571 | 0.9 | 0.814 | 0.675 | 0.799 | 0.799 | 0.544 |
| NCI-H2347 | 0.819 | 0.945 | 0.68 | 0.786 | 0.698 | 0.693 | 0.743 | 0.629 | 0.675 | 0.464 | 0.282 | 0.35 | – | 0.375 | 0.64 | 0.715 | 0.55 | 0.634 | 0.407 | 0.2 |
| EMC-BAC-2 | 1.16 | 1.47 | 1.01 | 0.993 | 0.811 | 0.828 | 0.817 | 0.635 | 0.709 | 0.407 | 0.368 | 0.342 | 0.302 | 0.33 | 0.898 | 0.565 | 0.447 | 0.46 | 0.351 | 0.248 |
| LOU-NH91 | 0.682 | 0.582 | 0.517 | 0.374 | 0.279 | 0.735 | 0.669 | 0.588 | 0.501 | 0.479 | 0.579 | 0.504 | 0.448 | 0.413 | 0.936 | – | 0.748 | – | 0.609 | 0.377 |
| LU99A | – | 0.881 | 0.708 | 0.799 | 0.359 | 0.513 | 0.586 | 0.472 | 0.527 | 0.32 | 0.636 | 0.352 | 0.551 | 0.51 | 0.428 | 0.465 | 0.469 | 0.529 | 0.43 | 0.278 |
| NCI-H1395 | 1.16 | 1.24 | 1.14 | 1.08 | 0.734 | – | – | – | – | – | 0.406 | 0.388 | 0.458 | 0.413 | 0.846 | 0.698 | – | 0.722 | 0.595 | 0.318 |
| NCI-H520 | 1.1 | 1.42 | 0.965 | 1.03 | 0.779 | 0.908 | 0.929 | 0.773 | 0.689 | 0.429 | 0.212 | 0.199 | 0.228 | 0.171 | 0.759 | 0.686 | – | 0.615 | 0.509 | 0.147 |
| 201T | 1.26 | 1.19 | 1.18 | 1.22 | 1.25 | 1.08 | 0.974 | 0.861 | 1.06 | 0.959 | 0.629 | 0.539 | – | 0.49 | 0.978 | 0.95 | 0.783 | 0.969 | 0.849 | 0.6 |
| NCI-H1944 | 1.03 | 1 | 0.871 | 0.814 | 0.677 | 1.31 | 0.991 | 0.99 | 0.762 | 0.348 | 0.201 | 0.211 | 0.193 | 0.205 | 0.657 | 0.544 | 0.474 | 0.501 | 0.456 | 0.181 |
| NCI-H3122 | 1.05 | 1.02 | 1.05 | 1.03 | 0.407 | 0.291 | 0.284 | 0.222 | 0.188 | 0.198 | 0.872 | 0.939 | 0.729 | 0.565 | 1.04 | 1.09 | 1.02 | 0.992 | 0.609 | 0.132 |
| NCI-H1703 | 1.46 | 0.921 | 0.929 | 0.884 | 0.286 | – | 0.582 | 0.637 | 0.5 | 0.14 | – | – | – | – | – | – | – | – | – | – |
| NCI-H1755 | 1.06 | – | – | 1.02 | 0.469 | 0.873 | 0.919 | 0.752 | 0.912 | 0.476 | 0.478 | 0.466 | 0.379 | 0.436 | 0.828 | 0.695 | 0.658 | 0.916 | 0.794 | 0.319 |
| NCI-H2126 | 0.861 | 0.831 | 0.682 | 0.748 | 0.35 | 1.05 | 1.03 | 1.03 | 1.06 | 0.51 | 0.589 | 0.602 | 0.523 | 0.426 | 0.776 | 0.79 | 0.706 | 0.574 | 0.379 | 0.338 |
